Experimental data taken from patent US6743824B2 (Somerset Pharmaceuticals, Inc., priority 1996, dated 2004).
Structures can show the parent of a compound that is named as a salt.

Columns and labels:
[1] = tested on: peripheral neuropathy caused by vincristine; assay: Treatment of peripheral neuropathy caused by vincristine (Example 1); assay type: in vivo, human; settings: patient with endometrial carcinoma on vincristine 1.4 mg/m^2 weekly; 5 mg orally twice a day
Experimental: A patient with endometrial carcinoma is given an intravenous bolus injection of vincristine at a dose of 1.4 mg/m^2 weekly. The toxic effects of vincristine cause sensory loss in the fingers and toes, a loss of the ankle jerk reflex, weakness and postural hypotension. […] During this time, therapy with vincristine is continued and evaluations of both tumor response and toxic side effects are carried out by a physician on a weekly basis. After continued therapy, symptoms associated with peripheral neuropathy subside. At this point, the dosage of vincristine is increased to 1.8 mg/m^2 and the process is continued.

CNS neurons = settings: toxins such as MPP+, kainic acid or DSP-4; cited from earlier work
spinal motor neurons = settings: rat; Iwasaki et al. 1994; cited from earlier work
retinal ganglion cells = settings: rat optic nerve crush model; Buys et al. 1994; cited from earlier work
[2] = tested on: axotomized rat facial motor neurons; settings: Salo et al. 1992; cited from earlier work
[3] = tested on: cultured spinal cord neuron; settings: Iwasaki et al. 1994; cited from earlier work

C#CCN(C)[C@H](C)Cc1ccccc1 [selegiline hydrochloride]
symptoms associated with peripheral neuropathy [1]: subside

C#CCN(C)C(C)Cc1ccccc1 (stereo not drawn) [selegiline, R-(−)-N-methyl-N-(prop-2-ynyl)-2-aminophenylpropane]
survival of CNS neurons after exposure to chemical toxins (CNS neurons): increase the survival
effect on axotomy-induced cell death in spinal motor neurons (spinal motor neurons): neuroprotective effect
survival of retinal ganglion cells at risk of undergoing apoptosis (retinal ganglion cells): increase the survival
rescue of axotomized facial motor neurons [2]: capable of rescuing
neurite outgrowth [3]: enhance neurite outgrowth
